Series [1] can be described thus: FaSSIF/FeSSIF solubility. It counts as physicochemical.
Series [2] concerns the target hERG (Homo sapiens, UniProt Q12809). Briefly: hERG (Patch Clamp). The series is classed as cell-based. On the technique in general: The hERG channel carries a current that helps repolarise heart muscle cells.

Each structure is given as a SMILES string. pIC50: −log10 of the molar value. Converted amounts (≈) assume the structure as drawn. Read-outs that look alike come from different tables or passages of the source.

By solubility is commonly meant the dissolved amount per volume that the medium holds. As usually defined, the pIC50 is −log10 of the IC50, conventionally taken in molar units. Lower therefore signals a large IC50.

Sequence of hERG (Q12809 whole entry): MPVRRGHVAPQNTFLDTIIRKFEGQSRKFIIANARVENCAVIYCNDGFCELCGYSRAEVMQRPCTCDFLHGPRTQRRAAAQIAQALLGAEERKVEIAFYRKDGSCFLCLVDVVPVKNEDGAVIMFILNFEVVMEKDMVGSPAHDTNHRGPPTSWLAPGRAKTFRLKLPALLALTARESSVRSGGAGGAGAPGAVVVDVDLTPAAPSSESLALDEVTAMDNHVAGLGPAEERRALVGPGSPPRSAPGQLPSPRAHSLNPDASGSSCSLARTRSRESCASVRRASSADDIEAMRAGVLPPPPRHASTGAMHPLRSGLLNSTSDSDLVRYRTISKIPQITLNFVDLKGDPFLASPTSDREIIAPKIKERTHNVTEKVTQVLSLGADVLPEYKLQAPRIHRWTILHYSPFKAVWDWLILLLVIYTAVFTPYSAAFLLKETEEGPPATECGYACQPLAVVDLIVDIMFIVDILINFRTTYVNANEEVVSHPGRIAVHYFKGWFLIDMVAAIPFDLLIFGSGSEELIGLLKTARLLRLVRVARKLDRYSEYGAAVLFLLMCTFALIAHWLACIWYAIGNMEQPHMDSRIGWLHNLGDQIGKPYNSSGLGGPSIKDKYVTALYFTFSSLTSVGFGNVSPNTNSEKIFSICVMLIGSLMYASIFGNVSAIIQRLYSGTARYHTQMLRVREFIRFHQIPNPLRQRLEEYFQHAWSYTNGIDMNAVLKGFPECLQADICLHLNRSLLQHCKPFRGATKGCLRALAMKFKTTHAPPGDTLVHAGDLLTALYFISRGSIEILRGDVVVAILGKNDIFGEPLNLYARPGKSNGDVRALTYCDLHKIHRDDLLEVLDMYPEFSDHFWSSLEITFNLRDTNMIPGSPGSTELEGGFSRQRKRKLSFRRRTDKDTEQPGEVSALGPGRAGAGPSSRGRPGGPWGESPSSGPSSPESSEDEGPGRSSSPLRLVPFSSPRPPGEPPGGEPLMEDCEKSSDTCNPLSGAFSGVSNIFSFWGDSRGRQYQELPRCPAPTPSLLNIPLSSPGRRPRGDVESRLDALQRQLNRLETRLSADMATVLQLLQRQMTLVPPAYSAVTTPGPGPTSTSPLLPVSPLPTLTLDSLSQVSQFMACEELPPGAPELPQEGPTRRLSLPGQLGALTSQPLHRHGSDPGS

Take `CNc1cc(Nc2cccn(-c3ccccn3)c2=O)nc2c(C(=O)N[C@@H]3CC[C@H]3OC)cnn12` [Compound 1, N-((1R,2R)-2-methoxycyclobutyl)-7-(methylamino)-5-((2-oxo-2H-[1,2′-bipyridin]-3-yl)amino)pyrazolo[1,5-a]pyrimidine-3-carboxamide]: the solubility in series [1] (FaSSIF, read-out: FaSSIF solubility) was 13 µg/mL (≈ 28.2 µM); in series [1] (FeSSIF, read-out: FeSSIF solubility), 70 µg/mL (≈ 152 µM). Further, the pIC50 in series [2] is < 4.52.
